Data on four substances can be found in patent US20230123148A1, “TARGETING QUORUM-SENSING PEPTIDES FOR DIAGNOSIS, TREATMENT AND/OR PREVENTION OF COLORECTAL CANCER METASTASIS” (UNIVERSITEIT GENT, priority 2020, published 2023).

The target of one test is T1, CXCR4 receptor (Homo sapiens, UniProt P61073).
T1 construct: endogenous in cells; host or cells: luciferase transfected HCT-8/E11 cells
In words: Antagonism of the E-cadherin reducing effect of QSP76 (Western blot, HCT-8 cells). As to conditions: for relative E-cadherin expression: PBS = 100%. The format is cell-based. On the procedure:
Western Blot analyses. 1×10^6 luciferase transfected HCT-8/E11 cells were seeded in each well of a 6-well plate. […] After 24 hours, cells were detached from the surface and lysed with Thermo Scientific RIPA-buffer. The protein concentration was then determined using the modified Lowry protein assay kit, according to the manufacturer's instructions. All samples were diluted to the same concentration (i.e. 4 μg/μL) using water and diluted 1:1 using 2× Laemmli buffer. Next, the samples were boiled for 5 min at 95° C. for denaturation, after which centrifugation for 5 min at 16,000 g was performed; the supernatant was then used for Western blot analyses. Therefore, proteins (20 μg) were separated using a Bio-Rad Any kD gel (SDS-PAGE) and transferred to a PVDF membrane. Before the membranes were incubated with antibodies, non-specific binding sites were blocked using 5% skimmed milk solution (1 hour). Western blot was performed using an anti-E-cadherin (1/1000) antibody and incubated overnight at 4° C. Signal intensity was normalized against the total protein content in the lanes. Anti-rabbit-HRP antibody was used for detection (1/2000) (1 hour). Finally, the substrate (5 min) was added and the results were analyzed using the Bio-Rad ChemiDoc EZ imager and Image Lab software. TBS buffer with 0.05% Tween 20 was used for washing between the different steps.

The subject of a further test is HCT-8 CRC cells. As to conditions: cited from earlier work.
The subject of test [1] is luciferase transfected HCT-8/E11 cells. In words: Orthotopic colorectal cancer mouse model. It counts as in vivo, female athymic nude mice (Swiss nu/nu). On the procedure: Orthotopic colorectal cancer mouse model. All in vivo experiments were performed according to the Ethical Committee principles of laboratory animal welfare and approved by our institute (Ghent University, Faculty of Medicine and Health Sciences, approval number ECD 17-90). Mice were maintained in a sterile environment with light, humidity and temperature control (light-dark cycle with light from 7:00 h to 17:00 h, temperature 21-25° C. and humidity 45-65%). Before the experiment, mice were allowed to acclimatize for a minimum of seven days.
Six-weeks old female athymic nude mice (Swiss nu/nu) were anesthetized and a small midline laparotomy executed to localize the caecum. The caecum was then gently exteriorized and luciferase transfected HCT-8/E11 cells (1×10^6 cells) in a volume of 20 μL serum-free DMEM medium with matrigel (1:1) injected into the caecal wall. Cells were previously treated with EntF* (10 nM, 100 nM or 1 μM), Phr0662 (100 nM) or with the vehicle (PBS) or positive control (Transforming Growth Factor α (TGFα), 0.1 μg mL^−1) solution for 5 days before they were implanted in the mice. The caecum was then carefully returned to the abdominal cavity and the laparotomy closed in two layers by sutures of PDS 6/0. Starting from the day after tumour cell injection, mice were daily treated by i.p. injection with vehicle (PBS, n=15), EntF* (10 nmol kg^−1, n=12; 100 nmol kg^−1, n=18; 1 μmol kg^−1, n=8), Phr0662 (100 nmol kg^−1, n=5) or positive control (Epidermal Growth Factor (EGF), 100 μg kg^−1, n=18) for 6 weeks. Once a week, mice were investigated for tumour growth and metastases using bioluminescent imaging with the IVIS Lumina II (Perkin Elmer, Belgium) after i.p. injection with 200 μL luciferin (150 mg kg^−1). After 6 weeks, mice were euthanized using cervical dislocation, followed by macroscopic evaluation of the liver, diaphragm, lungs, caecum, duodenum and peritoneum for the presence of tumour nodules. Liver and lung tissues were then fixed in formalin during 24 h and stored in 70% ethanol for max. 3 days before embedding in paraffin. Afterwards, a haematoxylin & eosin (H&E) staining was performed on 8 μm sections and 3 sections were visualized per mouse using microscopy. The slides of all tumour-bearing mice were scored by two blinded, independent investigators using a scoring system. In the case of a difference in scoring, the slide was scored again by a third blinded, independent investigator for consensus.
Statistical analyses. The Kolmogorov-Smirnov test was used to assess if data obtained were normally distributed. For sample sizes of n<10, non-parametric tests (Mann-Whitney U test) were performed directly. Slope comparison was based on linear regression analysis. Bootstrapped medians and Hedges G-values were used to calculate the effect size.

Setting [2] is: after 6 weeks daily i.p. treatment.

T1 sequence (P61073 whole entry): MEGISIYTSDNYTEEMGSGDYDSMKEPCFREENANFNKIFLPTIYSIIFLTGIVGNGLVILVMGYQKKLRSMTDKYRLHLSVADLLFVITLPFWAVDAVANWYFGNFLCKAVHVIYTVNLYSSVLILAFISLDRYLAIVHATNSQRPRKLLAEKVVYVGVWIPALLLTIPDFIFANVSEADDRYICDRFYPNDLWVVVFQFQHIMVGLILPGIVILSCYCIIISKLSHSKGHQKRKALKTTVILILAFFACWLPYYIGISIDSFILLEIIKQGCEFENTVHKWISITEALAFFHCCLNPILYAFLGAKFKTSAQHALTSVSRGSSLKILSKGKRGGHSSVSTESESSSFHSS

Consider “ANLVECVFSLFKKCN (QSP76S1A) [EntF* antagonist]”, for which the “antagonistic effect on the in vitro pro-metastatic (E-cadherin reducing) effect of QSP76” value with CXCR4 receptor (HCT-8 cells) is on record as “reduces”. Besides, in the test with CXCR4 receptor (mixture of antagonist with 5 μM EntF* (QSP76), HCT-8 cells), the “relative E-cadherin expression” value worked out at 91.8%. In the test with CXCR4 receptor (mixture with QSP76 versus QSP76 alone), the “Cohen's d effect size of normalisation in E-cadherin expression” value was 0.77.
As to ERNNT [Phr0662], in the test with HCT-8 CRC cells, the “promotion of angiogenesis and/or tumour cell invasion in vitro” value was “promote in vitro cell invasion”. The “in vivo metastasis-promoting effect” value in test [1] (daily i.p. for 6 weeks) is “no in vivo metastasis-promoting effects”.
In the case of Epidermal Growth Factor [EGF], in test [1] (setting [2]), the “bioluminescence, Bootstrapped median difference (effect size, increase vs PBS)” value stood at 316%; the “bioluminescence, Hedges' g value (vs PBS)” value came to 0.7; the “bioluminescence, Median” value stood at 630. In test [1] (after 6 weeks treatment), the “increase in the number of nodules on the caecum compared to PBS” value is recorded as 4.5 fold; the “number of nodules on the caecum, Hedges' g value (vs PBS)” value is 0.8; the “number of nodules on the caecum, Median” value is on record as 14. In addition, the “number of nodules on the caecum, Bootstrapped median difference” value in test [1] (after 6 weeks treatment, vs PBS) came out at 9. Moreover, the “tumour growth (luciferase activity, bioluminescent imaging) compared to vehicle” value in test [1] (weekly imaging during 6 weeks, linear regression slope comparison) was “significant increase of tumour growth”.
Consider “SNLVECVFSLFKKCN (SNLVECVFSLKKCN; EntF metabolite) [EntF*]”, for which the “relative E-cadherin expression” value with CXCR4 receptor (QSP76 alone, HCT-8 cells) was 66.0%.
